Reference: patent US9422248B2 (University of Iowa Research Foundation, priority 2012, dated 2016)
Where “and” joins values, the source holds several entries; their conditions need not be identical. Equal entries are not always repeated. Entries after “also recorded” stand apart in the source; their conditions may differ. Where two headings read alike, the source gives them in different places.

Legend:
seizures = assay: anticonvulsant properties (model not stated); conditions: in vivo
6 Hz (32 mA) model [1] = conditions: cited from earlier work; for anticonvulsant activity in the 6 Hz model: mouse 6 Hz (32 mA), previously shown; for ED50: 6 Hz model, earlier work
[2] = tested on: scMET model (pentylenetetrazole, Metrazol); conditions: mouse; previously demonstrated; cited from earlier work
[3] = tested on: maximal electroshock (MES) model; conditions: mouse; previously demonstrated; cited from earlier work
[4] = tested on: scMET model (pentylenetetrazole, Metrazol); assay: scMET test (subcutaneous Metrazol); type: in vivo, mouse; conditions: for responders at 30 mg/kg / responders at 100 mg/kg / responders at 300 mg/kg: Mus musculus, scMET, read-out: number of animals protected/number of animals tested; for responders at 30 mg/kg: 30 mg/kg ip; for responders at 100 mg/kg: 100 mg/kg ip; for responders at 300 mg/kg: 300 mg/kg ip
Text: (§1) All compounds (FIG. 1) were screened in three whole mouse models: the maximal electroshock model (MES), the scMET test (pentylenetetrazole, Metrazol), and the 6 Hz psychomotor seizure model of partial epilepsy (32 mA). Adult male CF No 1 albino mice (26-30 g) were used for the 6 Hz test and 18-25 g mice were used in the MES and scMet tests. The animals are housed, fed, and handled in a manner consistent with the recommendations in the National Council Publication, “Guide for the Care and Use of Laboratory Animals”. The animal studies were performed by the NINDS Anticonvulsant Screening Program under IACUC number 09-12014. All compounds were administered ip in polyethylene glycol, 30%.
(§2) The MES model, which generates generalized tonic-clonic seizures, involved pretreating mice with experimental compound, and administering 60 Hz of alternating current (50 mA) for 2 s via corneal electrodes. Prior to current administration, the animal's corneas were treated topically with 1% tetracaine. Animals are considered protected if the hindlimb tonic extensor component is absent. The scMET test was done by pretreating mice with experimental compound and administering 85 mg/kg Metrazol into the loose folds of the skin in the midline of the neck. Eighty-five mg/kg Metrazol is the dose that causes seizures in 97% (CD97) of control animals.

rotorod test = assay: Toxicity by the rotorod test; type: in vivo
Text: All compounds (FIG. 1) were screened in three whole mouse models: the maximal electroshock model (MES), the scMET test (pentylenetetrazole, Metrazol), and the 6 Hz psychomotor seizure model of partial epilepsy (32 mA). Adult male CF No 1 albino mice (26-30 g) were used for the 6 Hz test and 18-25 g mice were used in the MES and scMet tests. The animals are housed, fed, and handled in a manner consistent with the recommendations in the National Council Publication, “Guide for the Care and Use of Laboratory Animals”. […] All compounds were administered ip in polyethylene glycol, 30%.
The 6 Hz test (also known as the minimal clonic seizure, or psychomotor test) involved delivering a corneal stimulus of 32 mA for 3 s. […] Seizures consist of a minimal clonic phase followed by stereotyped automatistic behaviors. Animals not showing such behaviors were considered protected. Toxicity was determined by the rotorod test. For this test, the animal is placed on a rotorod at 6 rpm following dosing. The animal is considered toxic if it falls off the rotorod three times in a 1 min period. The ED50, TD50 and confidence intervals were determined by probit analysis.

[5] = tested on: maximal electroshock (MES) model; assay: maximal electroshock (MES) model; type: in vivo, mouse; conditions: for responders at 30 mg/kg / responders at 100 mg/kg / responders at 300 mg/kg: Mus musculus, MES; for responders at 30 mg/kg: 30 mg/kg ip; for responders at 30 mg/kg / responders at 300 mg/kg: read-out: number of animals protected/number of animals tested; for responders at 100 mg/kg: 100 mg/kg ip, read-out: number of animals protected/number of animals tested (converted); for responders at 300 mg/kg: 300 mg/kg ip
Text: as §1, §2

6 Hz (32 mA) model [6] = assay: 6 Hz (32 mA) psychomotor seizure model of partial epilepsy; type: in vivo, mouse; conditions: for Protective effects, number of animals protected/number of animals tested: 6 Hz (32 mA), 100 mg/kg ip
Text: as §1
The 6 Hz test (also known as the minimal clonic seizure, or psychomotor test) involved delivering a corneal stimulus of 32 mA for 3 s. This current elicits psychomotor seizures in 97% of untreated animals. Seizures consist of a minimal clonic phase followed by stereotyped automatistic behaviors. Animals not showing such behaviors were considered protected. Toxicity was determined by the rotorod test. For this test, the animal is placed on a rotorod at 6 rpm following dosing. The animal is considered toxic if it falls off the rotorod three times in a 1 min period. The ED50, TD50 and confidence intervals were determined by probit analysis.

[7] = analgesic properties (test not described)

Row | SMILES | anticonvulsant activity in the 6 Hz model (6 Hz (32 mA) model [1]) | responders at 30 mg/kg ([4]; 0.5 h) | responders at 30 mg/kg ([4]; 4 h) | responders at 100 mg/kg ([4]; 0.5 h) | responders at 100 mg/kg ([4]; 4 h) | responders at 300 mg/kg ([4]; 0.5 h) | responders at 300 mg/kg ([4]; 4 h) | Toxicity, animals/number of animals tested (rotorod test; dose 100 mg/kg ip, 0.25 h) | Toxicity, animals/number of animals tested (rotorod test; dose 100 mg/kg ip, 0.5 h) | Toxicity, animals/number of animals tested (rotorod test; dose 100 mg/kg ip, 1 h) | Toxicity, animals/number of animals tested (rotorod test; dose 100 mg/kg ip, 2 h) | Toxicity, animals/number of animals tested (rotorod test; dose 100 mg/kg ip, 4 h) | responders at 30 mg/kg ([5]; 0.5 h) | responders at 100 mg/kg ([5]; 0.5 h) | responders at 100 mg/kg ([5]; 4 h) | responders at 300 mg/kg ([5]; 0.5 h) | responders at 300 mg/kg ([5]; 4 h) | other results
1 | CC(C)c1nc(C(O)C(F)(F)F)ccc1O (stereo not shown) [Compound 20, 2-isopropyl-6-(2,2,2-trifluoro-1-hydroxyethyl)pyridin-3-ol] | – | – | – | – | – | – | – | – | – | – | – | – | – | – | – | – | – | anticonvulsant properties (seizures): anticonvulsant properties
2 | Cc1cc(C(O)C(F)(F)F)cc(C)c1O (stereo not shown) [DMPF] | lack of activity | – | – | – | – | – | – | – | – | – | – | – | – | – | – | – | – | –
3 | CC(C)c1cc(C(O)C(F)(F)F)cc(C(C)C)c1O (stereo not shown) [MB003] | good anticonvulsant activity; also recorded: protective | – | – | – | – | – | – | – | – | – | – | – | – | – | – | – | – | protective effects in the scMET model [2]: little to no protective effects; ED50 (6 Hz (32 mA) model [1]): 38.6 mg/kg; protective effects in the MES model [3]: little to no protective effects
4 | CCC(C)c1cc(C(O)C(F)(F)F)cc(C(C)CC)c1O (stereo not shown) [MB050] | good anticonvulsant activity | – | – | – | – | – | – | – | – | – | – | – | – | – | – | – | – | ED50 (6 Hz (32 mA) model [1]): 73 mg/kg
5 | Cc1cc(C(O)C(F)(F)F)ccc1O (stereo not shown) [RM170, 2-Methyl-4-(2,2,2-trifluoro-1-hydroxy-ethyl)-phenol] | – | 0% | 0% | 0% | 0% | 0% | 0% | 0/3 | 0/8 | 0/3 | 0/3 | 0/4 | 0% | 0% | 0% | 100% | 100% | Toxicity, animals/number of animals tested (rotorod test; dose 100 mg/kg ip, 6 h): 0/3; Toxicity, animals/number of animals tested (rotorod test; dose 30 ip, 0.5 h): 0/4; Toxicity, animals/number of animals tested (rotorod test; dose 30 ip, 4 h): 0/2; Toxicity, animals/number of animals tested (rotorod test; dose 300 ip, 0.5 h): 0/4; Toxicity, animals/number of animals tested (rotorod test; dose 300 ip, 4 h): 0/2; evidence of toxicity (rotorod test; doses up to 300 mg/kg): Neither RM170 nor RM166 showed any evidence of toxicity; MES protection ([5]; 300 mg/kg dose): some protection; MES protection, time points after dosing ([5]; 300 mg/kg dose): protection at both 0.5 and 4 h; responders at 100 mg/kg ([5]; 0.25 h): 0%; responders at 100 mg/kg ([5]; 1 h): 0%; responders at 100 mg/kg ([5]; 2 h): 0%; responders at 100 mg/kg ([5]; 6 h): 0%; Protective effects, number of animals protected/number of animals tested (6 Hz (32 mA) model [6]; 0.25 h): 0/4; Protective effects, number of animals protected/number of animals tested (6 Hz (32 mA) model [6]; 0.5 h): 0/4; Protective effects, number of animals protected/number of animals tested (6 Hz (32 mA) model [6]; 1 h): 2/4; Protective effects, number of animals protected/number of animals tested (6 Hz (32 mA) model [6]; 2 h): 1/4; Protective effects, number of animals protected/number of animals tested (6 Hz (32 mA) model [6]; 4 h): 1/4; animals in which seizures were inhibited (6 Hz (32 mA) model [6]; 6 Hz, 100 mg/kg, any time point from 0.25 to 4 h): no more than 2 of 4
6 | CCCc1cc(C(O)C(F)(F)F)cc(Br)c1O (stereo not shown) [RM1204, 2-Bromo-6-n-propyl-4-(2,2,2-trifluoro-1-hydroxy-ethyl)-phenol] | – | 0% | 0% | 0% | 0% | 0% | 0% | 1/4 | 0/4 | 1/4 | 0/4 | 0/4 | 0% | 0% | 0% | 0% | 0% | toxicity (rotorod test; mouse, in vivo): only low toxicity; responders at 30 mg/kg ([5]; 4 h): 0%; MES protection ([5]; any dose (30-300 mg/kg ip)): no MES protection; Protective effects, number of animals protected/number of animals tested (6 Hz (32 mA) model [6]; 0.25 h, 100 mg/kg): 4/4 and complete protection; Protective effects, number of animals protected/number of animals tested (6 Hz (32 mA) model [6]; 0.5 h, 100 mg/kg): 4/4 and complete protection; Protective effects, number of animals protected/number of animals tested (6 Hz (32 mA) model [6]; 1 h, 100 mg/kg): partial protection and 2/4; Protective effects, number of animals protected/number of animals tested (6 Hz (32 mA) model [6]; 2 h): 0/4; Protective effects, number of animals protected/number of animals tested (6 Hz (32 mA) model [6]; 4 h): 0/4
7 | CCCc1cc(C(O)C(F)(F)F)ccc1O (stereo not shown) [RM1208, 2-n-Propyl-4-(2,2,2-trifluoro-1-hydroxy-ethyl)-phenol] | – | 0% | 0% | 0% | 0% | 100% | 0% | 0/2 | 0/8 | 0/3 | 0/3 | 0/4 | 0% | 0% | 0% | 100% | 100% | scMET protection, time points after dosing ([4]; 300 mg/kg dose): at 0.5 h only; Toxicity, animals/number of animals tested (rotorod test; dose 100 mg/kg ip, 6 h): 0/3; Toxicity, animals/number of animals tested (rotorod test; dose 30 ip, 0.5 h): 0/4; Toxicity, animals/number of animals tested (rotorod test; dose 30 ip, 4 h): 0/2; Toxicity, animals/number of animals tested (rotorod test; dose 300 ip, 0.5 h): 3/4; Toxicity, animals/number of animals tested (rotorod test; dose 300 ip, 4 h): 0/2; MES protection ([5]; 300 mg/kg dose): some protection; MES protection, time points after dosing ([5]; 300 mg/kg dose): protection at both 0.5 and 4 h; responders at 30 mg/kg ([5]; 0.25 h): 0%; responders at 30 mg/kg ([5]; 1 h): 0%; responders at 30 mg/kg ([5]; 2 h): 0%; responders at 30 mg/kg ([5]; 4 h): 0%; responders at 30 mg/kg ([5]; 6 h): 0%; antiseizure activity in the 6 Hz model (6 Hz (32 mA) model [6]; mouse, in vivo): not an active compound
8 | CC(C)c1cc(C(O)C(F)(F)F)cc(Br)c1O (stereo not shown) [compound 10] | – | – | – | – | – | – | – | – | – | – | – | – | – | – | – | – | – | analgesic properties [7]: analgesic properties
